Data set [1] can be described thus: Cytotoxicity Huh-7 cells (MTS/PMS). It counts as cell-based. To be noted: human, 3-day incubation. Here is the method: Cytotoxicity of compounds for use in treating hyperproliferative diseases or disorders was tested in Huh-7 cells using tetrazolium salt MTS combined with the electron acceptor PMS in a 96-well format. Six doses of each compound was tested, starting at about 1.2 μM to 0.4 μM serially diluted in a final 1% DMSO solution in DMEM/F12 media. Terfenadine was used as a positive control. Cells were seeded at 2.5×10^5 cells/mL in each well of the 96-well plates in a final volume of 0.1 mL, and then incubated at 37° C. in the presence of 5% CO2 overnight. Compounds (in media) were added the following day and the treated cells were incubated another 3-days at 37° C. in the presence of 5% CO2. After the 3-day incubation, 20 μL of MTS/PMS (3-(4,5-dimethylthiazol-2-yl)-5-(3-carboxymethoxy-phenyl)-2-(4-sulfophenyl)-2H-tetrazolium) was added to each well. After about a one to four hour incubation of MTS/PMS at 37° C. and 5% CO2—that is, until an OD490 absorbance of ≧0.6 for the wells containing cells with media only, the level of cytotoxicity at each concentration was calculated. […] Dose response results from the cytotoxicity assay (CC50) are provided in Table 4 in comparison with IC50 data (from Table 2)

For data set [2], the target named is T1, Calf polymerase alpha (Bos taurus, UniProt A0AAA9TD94).
T1 construct: purchased Replizyme Ltd (Heslington, York, UK)
T1 sequence (A0AAA9TD94 1-1441): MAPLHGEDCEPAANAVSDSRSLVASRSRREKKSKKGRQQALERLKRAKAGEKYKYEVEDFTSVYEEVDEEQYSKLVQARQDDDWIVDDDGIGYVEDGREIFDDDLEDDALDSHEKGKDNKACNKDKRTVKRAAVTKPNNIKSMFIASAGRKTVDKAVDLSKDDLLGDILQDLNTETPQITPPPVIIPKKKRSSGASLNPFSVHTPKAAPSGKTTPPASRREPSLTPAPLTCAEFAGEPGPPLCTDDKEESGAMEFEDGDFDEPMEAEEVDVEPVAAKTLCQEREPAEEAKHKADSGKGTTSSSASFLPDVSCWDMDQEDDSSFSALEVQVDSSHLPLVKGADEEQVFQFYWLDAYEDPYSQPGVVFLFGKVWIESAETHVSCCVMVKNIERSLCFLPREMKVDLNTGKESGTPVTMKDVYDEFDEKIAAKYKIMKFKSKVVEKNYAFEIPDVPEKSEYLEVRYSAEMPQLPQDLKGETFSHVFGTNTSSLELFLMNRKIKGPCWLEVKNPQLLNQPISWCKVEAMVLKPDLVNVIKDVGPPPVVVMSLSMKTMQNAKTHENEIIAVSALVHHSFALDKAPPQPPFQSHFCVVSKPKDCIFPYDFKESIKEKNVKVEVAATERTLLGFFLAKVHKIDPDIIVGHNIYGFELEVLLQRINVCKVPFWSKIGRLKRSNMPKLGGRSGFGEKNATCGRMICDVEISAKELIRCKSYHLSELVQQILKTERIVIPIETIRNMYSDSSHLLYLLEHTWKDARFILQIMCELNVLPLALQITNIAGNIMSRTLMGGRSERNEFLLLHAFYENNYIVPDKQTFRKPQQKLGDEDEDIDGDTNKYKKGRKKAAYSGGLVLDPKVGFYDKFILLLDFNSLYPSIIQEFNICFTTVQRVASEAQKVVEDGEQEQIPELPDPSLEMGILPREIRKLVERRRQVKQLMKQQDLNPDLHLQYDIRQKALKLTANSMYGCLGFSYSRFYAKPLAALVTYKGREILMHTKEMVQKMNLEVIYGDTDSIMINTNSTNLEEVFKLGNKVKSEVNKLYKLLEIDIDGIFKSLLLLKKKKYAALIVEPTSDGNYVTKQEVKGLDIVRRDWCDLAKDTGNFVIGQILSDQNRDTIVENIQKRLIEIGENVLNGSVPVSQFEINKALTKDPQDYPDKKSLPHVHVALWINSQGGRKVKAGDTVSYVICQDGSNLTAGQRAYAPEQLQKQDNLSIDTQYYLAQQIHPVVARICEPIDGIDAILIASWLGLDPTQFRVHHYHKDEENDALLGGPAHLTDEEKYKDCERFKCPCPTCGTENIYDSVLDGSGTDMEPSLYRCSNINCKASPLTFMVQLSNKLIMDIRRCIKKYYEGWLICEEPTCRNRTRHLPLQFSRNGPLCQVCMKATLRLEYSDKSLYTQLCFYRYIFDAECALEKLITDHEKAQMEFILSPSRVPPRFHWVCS
Put plainly: Calf polymerase alpha inhibition (Replizyme kit). It counts as biochemical. The following applies: for IC50: dose response. As to the method: (§1) Calf polymerase alpha and human polymerase alpha investigations were performed with a kit available from Replizyme Ltd (Heslington, York, UK).

Data set [3] deals with T2, human polymerase alpha (Homo sapiens, UniProt P09884).
T2 construct: purchased Replizyme Ltd (Heslington, York, UK)
T2 sequence (P09884 1-1462): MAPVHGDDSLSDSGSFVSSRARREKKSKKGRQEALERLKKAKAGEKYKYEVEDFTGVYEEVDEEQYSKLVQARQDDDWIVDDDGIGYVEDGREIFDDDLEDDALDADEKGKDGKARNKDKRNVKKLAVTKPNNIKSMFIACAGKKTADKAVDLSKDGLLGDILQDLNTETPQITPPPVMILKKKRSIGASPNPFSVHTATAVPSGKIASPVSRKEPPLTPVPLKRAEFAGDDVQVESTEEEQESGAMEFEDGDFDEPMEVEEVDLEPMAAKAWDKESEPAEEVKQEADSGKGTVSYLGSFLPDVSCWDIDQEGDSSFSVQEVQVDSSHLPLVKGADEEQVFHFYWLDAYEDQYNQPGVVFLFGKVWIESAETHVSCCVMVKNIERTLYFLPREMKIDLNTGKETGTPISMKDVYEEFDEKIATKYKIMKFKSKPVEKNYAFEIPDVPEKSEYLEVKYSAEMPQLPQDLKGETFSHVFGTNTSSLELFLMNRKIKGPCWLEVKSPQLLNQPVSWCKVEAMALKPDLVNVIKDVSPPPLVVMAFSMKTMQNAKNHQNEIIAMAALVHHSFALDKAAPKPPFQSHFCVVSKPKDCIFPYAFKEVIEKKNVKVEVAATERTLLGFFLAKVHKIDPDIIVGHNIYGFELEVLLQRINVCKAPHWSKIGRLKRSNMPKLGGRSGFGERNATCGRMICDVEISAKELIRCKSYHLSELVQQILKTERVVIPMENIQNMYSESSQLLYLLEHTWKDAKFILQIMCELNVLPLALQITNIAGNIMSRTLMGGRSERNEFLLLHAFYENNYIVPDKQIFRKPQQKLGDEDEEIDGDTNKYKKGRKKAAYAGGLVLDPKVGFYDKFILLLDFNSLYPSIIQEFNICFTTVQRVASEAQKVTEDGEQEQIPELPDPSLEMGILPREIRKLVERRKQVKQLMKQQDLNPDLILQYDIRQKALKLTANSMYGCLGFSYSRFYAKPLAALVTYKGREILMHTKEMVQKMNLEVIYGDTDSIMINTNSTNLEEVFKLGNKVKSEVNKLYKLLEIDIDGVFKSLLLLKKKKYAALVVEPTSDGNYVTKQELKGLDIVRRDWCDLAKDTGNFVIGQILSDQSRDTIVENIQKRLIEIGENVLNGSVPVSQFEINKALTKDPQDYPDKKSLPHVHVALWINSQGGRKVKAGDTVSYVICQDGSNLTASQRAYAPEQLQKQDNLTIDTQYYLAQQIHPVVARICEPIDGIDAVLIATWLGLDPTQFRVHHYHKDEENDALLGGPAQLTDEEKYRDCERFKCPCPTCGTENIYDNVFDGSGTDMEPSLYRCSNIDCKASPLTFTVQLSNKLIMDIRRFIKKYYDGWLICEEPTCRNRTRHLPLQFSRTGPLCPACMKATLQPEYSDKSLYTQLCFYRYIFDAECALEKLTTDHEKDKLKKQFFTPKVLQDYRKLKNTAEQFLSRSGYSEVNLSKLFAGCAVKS
Put plainly: Human polymerase alpha inhibition (Replizyme kit). Format: biochemical. The following applies: dose response. Here is the method: as §1

[4] abbreviates: at 10 μM, single point screening.

SMILES strings stand for the structures.

In data set [1], `Cc1ccc(NC(=O)[C@@H](CCCCN)NC(=O)Nc2ccc(OCc3ccccc3)cc2)cc1` [Compound 172, (R)-6-AMINO-2-[3-(4-BENZYLOXY-PHENYL)-UREIDO]-HEXANOIC ACID P-TOLYLAMIDE] gave a 50% cytotoxic concentration (CC50) at 3 days of 26 µM. In addition, in data set [2] (setting [4]), the inhibition at 10 µM stood at 60%. Moreover, in data set [2], the midpoint of inhibition, the IC50, lay at 7.3 µM.
As to `NCCCC[C@H](NC(=O)Nc1ccc(-c2ccccc2)cc1)C(=O)Nc1ccc(C2CCCCC2)cc1` [Compound 119, (S)-6-AMINO-2-(3-BIPHENYL-4-YL-UREIDO)-HEXANOIC ACID (4-CYCLOHEXYL-PHENYL)-AMIDE], the CC50 at 3 days in data set [1] amounted to 12.2 µM. Moreover, in data set [2] (setting [4]), the inhibition at 10 µM amounted to 102%. For the same compound, the 50% inhibitory concentration (IC50) in data set [2] and in data set [3] was 1.5 µM in each case.
In the case of `Cc1ccc(NC(=O)[C@H](CCCCN)NC(=O)Nc2ccc3c(c2)Cc2ccccc2-3)cc1` [Compound 125, (S)-6-AMINO-2-[3-(9H-FLUOREN-2-YL)-UREIDO]-HEXANOIC ACID P-TOLYLAMIDE], the CC50 at 3 days in data set [1] was 9.7 µM. In addition, the inhibition at 10 µM in data set [2] (setting [4]) stood at 100%. For the same compound, the half-maximal inhibitory concentration (IC50) in data set [2] is 2.8 µM; in data set [3], 3 µM.
In the same order, the values of `Cc1ccc(NC(=O)C[C@H](CCCCN)NC(=O)Nc2ccc(OCc3ccccc3)cc2)cc1` [Compound 246, (S)-7-AMINO-3-[3-(4-BENZYLOXY-PHENYL)-UREIDO]-HEPTANOIC ACID P-TOLYLAMIDE] are 45.9 µM, 46.6%, 9.8 µM and 8 µM.
On to `Cc1ccc(NC(=O)[C@H](CCCCN)NC(=O)Nc2ccc(OCc3ccccn3)cc2)cc1` [Compound 299, (S)-6-AMINO-2-{3-[4-(PYRIDIN-2-YLMETHOXY)-PHENYL]-UREIDO}-HEXANOIC ACID P-TOLYLAMIDE], for which the 50% cytotoxic concentration (CC50) at 3 days in data set [1] was greater than 100 µM. In addition, in data set [2] (setting [4]), the inhibition at 10 µM is 16%. Also, the values for the IC50 in data set [2] and in data set [3] were greater than 30 µM and 68 µM, respectively.
In turn, `CC1CCC(NC(=O)[C@H](CCCCN)NC(=O)Nc2ccc(OCc3ccccc3)cc2)CC1` (stereo partly drawn) [Compound 264, (S)-6-AMINO-2-[3-(4-BENZYLOXY-PHENYL)-UREIDO]-HEXANOIC ACID (4-METHYL-CYCLOHEXYL)-AMIDE] yielded a CC50 at 3 days in data set [1] of 26.6 µM. Also, in data set [2] (setting [4]), the “% Inhibition” value is recorded as 35% and the inhibition at 10 µM is 41%. In data set [2], the IC50 was 16 µM.
In data set [1], `Cc1ccc(NC(=O)[C@H](CCCCN)NC(=O)CNc2ccc(Oc3ccccc3)cc2)cc1` [Compound 368, (S)-6-AMINO-2-[2-(4-PHENOXY-PHENYLAMINO)-ACETYLAMINO]-HEXANOIC ACID P-TOLYLAMIDE] yielded a cytotoxic concentration (CC50) at 3 days of 58 µM. The same compound came in with an IC50 in data set [2] of 6 µM.
Turning to `NCCCC[C@H](NC(=O)Nc1ccc(OCc2ccccc2)cc1)C(=O)NCc1ccco1` [Compound 302, (S)-6-AMINO-2-[3-(4-BENZYLOXY-PHENYL)-UREIDO]-HEXANOIC ACID (FURAN-2-YLMETHYL)-AMIDE], in data set [1], the half-maximal cytotoxic concentration (CC50) at 3 days was greater than 100 µM. Moreover, the inhibition at 10 µM in data set [2] (setting [4]) stood at 5%. The half-maximal inhibitory concentration (IC50) in data set [2] was greater than 30 µM; in data set [3] it was 72 µM.
In data set [1], `NCCCC[C@H](NC(=O)OCC1c2ccccc2-c2ccccc21)C(=O)Nc1ccc(CN)cc1` [Compound 228, (S)-[5-AMINO-1-(4-AMINOMETHYL-PHENYLCARBAMOYL)-PENTYL]-CARBAMIC ACID 9H-FLUOREN-9-YLMETHYL ESTER] had a 50% cytotoxic concentration (CC50) at 3 days of 36.7 µM. This compound also had a half-inhibitory concentration (IC50) in data set [2] of 5.5 µM.

Source of the values: US20080171783A1, “COMPOSITIONS AND METHODS FOR TREATING HYPERPROLIFERATIVE DISEASE” (Migenix Inc., priority 2006, published 2008).
